EP1785417A2, “Novel non-psychotropic cannabinoids” (priority 2000, dated 2001)

What was measured:
TNFα = assay: Inhibition of TNFα in LPS-stimulated macrophage cell cultures (ELISA); assay type: cell-based; conditions: LPS-stimulated macrophages
Excerpt: (§1) Evaluation of the therapeutic effects of the novel PRS-211 compounds has now been carried out in a series of experimental systems to support the utility of these drugs as neuroprotectants, anti-inflammatory agents and anti-oxidative agents. These effects have been evaluated both in vitro and in vivo, and have been corroborated utilizing the following systems: • (a) Binding to the NMDA receptor linked channel: Non competitive antagonists of NMDA, the primary example of which is the compound MK-801, bind to a site within the NMDA receptor channel thus preventing the activation of the receptor-channel complex and the consequent neurotoxicity. The ability of various compounds to compete with the binding of tritium labeled MK-801 to brain membranes is considered a measure of their potency as NMDA non-competitive antagonists. • (b) Inhibition of prostaglandin production: The inhibitory effect of the new derivatives of Dexanabinol on prostaglandin synthesis is evaluated in macrophage cell cultures following LPS exposure to induce the inflammatory response. These assays are an indication of the anti-inflammatory activity of the individual analogs. • (c) Inhibition of Tumor Necrosis Factor Alpha: Specific aspects of the inflammatory response cascade are mediated by the cytokine TNFα. Inhibition of TNFα production and/or inhibition of TNFα release by the new analogs are assayed in macrophage cell cultures activated with LPS. This serves as another indication of the general anti-inflammatory potential of the novel compounds. • (d) Nitric Oxide Assay: As one aspect of the anti-oxidative potential of the novel analogs they were tested for their ability to inhibit the enzyme nitric oxide synthase (NOS). This assay can also serve as another indication of the anti-inflammatory cascade, as well as the anti-oxidative mechanisms. • (e) Ear Edema model: The anti-inflammatory activity of the new analogs is screened using an ear edema model in mice. This test system utilizes Croton oil or Arachidonic acid as inflammation inducers. The ability of the test compounds to prevent or diminish the inflammatory response to these stimulants is indicative of their systemic anti-inflammatory capability. • (f) Improved clinical outcome after closed head injury in rats: Severe head injury is associated with high mortality and severe neurological impairment. Animals subjected to head trauma in a controlled fashion serve as models in which to test drugs of therapeutic potential. Test compounds can be evaluated both for improved clinical outcome and for reduction of edema induced by closed head injury. The ability of compounds to reduce the severity of neurological symptoms and to reduce brain edema is considered a measure of their potency in reducing brain damage. • (g) Transient Middle cerebral artery occlusion (MCAo): The middle cerebral artery is the cerebral blood vessel most susceptible to stroke in humans. In animals, coagulation, permanent ligation or permanent placement of an occluding thread in the artery produces a permanent focal stroke affecting the MCA territory. Transient ligation or occlusion results in transient focal stroke. Both transient and permanent focal strokes result in varying degrees of edema and infarction in the affected brain regions. The ability of compounds to reduce the volumes of edema and infarction is considered a measure of their potential as anti-stroke treatment. • (h) Optic Nerve Crush: Application of mechanical pressure to the rat optical nerve results in crush injury of the axons, which is accompanied by immediate changes in oxidative metabolism and delayed axonal death and blindness. […]

[1] = tested on: Nitric Oxide Synthase (NOS); assay: Inhibition of nitric oxide synthase (nitrite fluorimetric assay, LPS-stimulated macrophage cultures); assay type: cell-based; conditions: LPS-stimulated macrophages
Excerpt: as §1

[2] = tested on: rats following Closed Head Injury (CHI); assay: Rat model of closed head injury (cerebral edema, NSS); assay type: in vivo; conditions: for Neurological score 1hr / ΔNSS 24hr / Neurological score 24hr / Water content Left / Water content Right: rats, CHI; for Neurological score 1hr: 1 hr after injury; for Neurological score 24hr: 24 hr after injury; for Water content Left / Water content Right: doses of 5-10 mg/kg
Protocol: The cerebroprotective effect of PRS-211 compounds was assessed in a model of head trauma (HT) in rats. Injury was induced in anesthetized rats by a weight-drop device followed by a recovery period of up to 48 hours. This type of trauma produces brain edema (i.e. increase in water content, decrease in specific gravity in the brain), breakdown of the blood brain barrier (BBB) and clinical dysfunction. The clinical status of the rats was evaluated 1, 24 and 48 hours after injury along with measuring the extent of cerebral edema. The neurological deficit, assessed by a set of criteria termed the Neurological Severity Score (NSS), is maximal at 1 hour after the initiation of head trauma. The NSS slowly decreases over time from the initiation of HT, with the gradual spontaneous recovery of the rats.
The model was described in detail by Shapira et al., Crit. Care Med. 16:258-265, 1988. Rats were subjected to head trauma (HT) by a weight-drop device and surviving rats were followed up after one week. During that period they had free access to food and water, and were kept 2-3 rats to a cage. At any predesignated time (15 min, 1, 4, 24, 48 hrs, etc.) rats were sacrificed. Their brains were then rapidly removed and cortical tissue taken to determine water content, ions and the metabolites of interest at any particular metabolic cascade studied. During the recovery period, the clinical status was evaluated by a set of criteria (NSS).
Trauma induced a significant decrease in specific gravity (SG) of brain tissue and increase in water content following head injury. Edema developed since more water accumulates in either the extracellular (vasogenic) or intracellular (cytotoxic) spaces. The methods employed to determine edema are based on linear gradient columns of bromobenzene and kerosene (for SG) and for water content on drying the tissue in a desiccated oven. Tissue pieces (20 mg each) were placed on top of the column and the SG calculated from the equilibrium position in the column, using a standard curve.
The effect of PRS-211 analogs was calculated by the percent edema formation, where 100% was taken as edema in control, non-treated rats. Thus, the reduction in the SG was calculated as follows: SG(sham)-SG(drug)/SG(sham)-SG(cont) × 100 [formula] The increase in water content was calculated as follows: [%H2O(drug-%H2 O(sham)/%H2 O(cont)-%H2 O(sham)] × 100 [formula] All results presented in the table are statistically different (p<0.05) from control, traumatized vehicle treated rats.

[3] = Body weight gain during staircase testing after transient MCAo; assay type: in vivo, rats; conditions: compared to base line
Protocol: Animals were allowed to recover from the surgery for five days. The mild food deprivation was re-employed during the days following the ischemic insult. They were tested in the staircase box using the above method for 9-12 days. Animals were weighed twice a week during this period.
Animals were kept under mild food deprivation during the staircase testing (except during weekends). Under these conditions, the following results were observed: • Sham and PRS-211,095 10 mg/kg treated rats gained the maximal body weight (15 and 17% respectively compared to base line). […] These differences were not statistically different.

| Compound | inhibition at 10 µM (TNFα) | inhibition at 10 µM [1] | Neurological score 1hr [2] | ΔNSS 24hr [2] | Neurological score 24hr [2] | Water content Left [2] | Water content Right [2] | body weight gain ([3]; 5 mg/kg) | edema formation and BBB disruption ([2]; given 30 min before, immediately after, or 1 and 2 hours after HT) | edema and clinical outcome ([2]; one dose of 5 mg/kg given 1 hour after the impact, measured 24 hours after HT) | body weight gain ([3]; 0.5 mg/kg) | body weight gain ([3]; 2.5 mg/kg) | body weight gain ([3]; 10 mg/kg) |
| --- | --- | --- | --- | --- | --- | --- | --- | --- | --- | --- | --- | --- | --- |
| CCCCCCC(C)(C)c1cc(O)c2c(c1)OC(C)(C)[C@H]1CC=C(CO)C[C@H]21 [211,007-000 HU-211, 1,1 dimethyl heptyl-(3 S,4S)-7-hydroxy-Δ^6-tetrahydrocannabinol, reference compound] | 33% | 20% | 11.7 ±0.7 | 5.5 ±0.42 | 6.3 ±0.6 | 83.09 ±0.51 | 79.37 ±0.30 | 7% | – | – | – | – | – |
| CCCCCCC(C)(C)c1cc(O)c2c(c1)OC(C)(C)[C@H]1CC=C(Cn3ccnc3)C[C@H]21 (single isomer, unassigned) [211,095-000] | 11% | 14% | 11.9 ±0.6 | 6.5 ±0.45 | 5.4 ±0.5 | 82.89 ±0.48 | 79.75 ±0.20 | 4% | significantly reduces edema formation and BBB disruption | effectively reduced edema and improved the clinical outcome | did not gain weight | did not gain weight | 17% |
